Entries after “also recorded” stand apart in the source; their conditions may differ.
What was measured:
kidney = settings: mouse, in vivo
UUO kidneys = assay: Unilateral ureteral obstruction (UUO) kidney fibrosis model; format: in vivo, mouse
Gli2 = target: T1, Gli2 (Homo sapiens, UniProt P10070); assay: Gli2 darinaparsin binding assay (GST agarose bead pull-down); settings: 293T cells; for binding to Gli2 (pull-down of myc-tagged Gli2 with GST beads): 0.5 μM darinaparsin or vehicle
T1 construct: 293T cells were transfected with full length Gli2-myc and treated with darinaparsin (DAR) or vehicle (VEH); host or cells: Human 293T/17 (HEK 293T/17, ATCC)
T1 sequence (P10070 whole entry): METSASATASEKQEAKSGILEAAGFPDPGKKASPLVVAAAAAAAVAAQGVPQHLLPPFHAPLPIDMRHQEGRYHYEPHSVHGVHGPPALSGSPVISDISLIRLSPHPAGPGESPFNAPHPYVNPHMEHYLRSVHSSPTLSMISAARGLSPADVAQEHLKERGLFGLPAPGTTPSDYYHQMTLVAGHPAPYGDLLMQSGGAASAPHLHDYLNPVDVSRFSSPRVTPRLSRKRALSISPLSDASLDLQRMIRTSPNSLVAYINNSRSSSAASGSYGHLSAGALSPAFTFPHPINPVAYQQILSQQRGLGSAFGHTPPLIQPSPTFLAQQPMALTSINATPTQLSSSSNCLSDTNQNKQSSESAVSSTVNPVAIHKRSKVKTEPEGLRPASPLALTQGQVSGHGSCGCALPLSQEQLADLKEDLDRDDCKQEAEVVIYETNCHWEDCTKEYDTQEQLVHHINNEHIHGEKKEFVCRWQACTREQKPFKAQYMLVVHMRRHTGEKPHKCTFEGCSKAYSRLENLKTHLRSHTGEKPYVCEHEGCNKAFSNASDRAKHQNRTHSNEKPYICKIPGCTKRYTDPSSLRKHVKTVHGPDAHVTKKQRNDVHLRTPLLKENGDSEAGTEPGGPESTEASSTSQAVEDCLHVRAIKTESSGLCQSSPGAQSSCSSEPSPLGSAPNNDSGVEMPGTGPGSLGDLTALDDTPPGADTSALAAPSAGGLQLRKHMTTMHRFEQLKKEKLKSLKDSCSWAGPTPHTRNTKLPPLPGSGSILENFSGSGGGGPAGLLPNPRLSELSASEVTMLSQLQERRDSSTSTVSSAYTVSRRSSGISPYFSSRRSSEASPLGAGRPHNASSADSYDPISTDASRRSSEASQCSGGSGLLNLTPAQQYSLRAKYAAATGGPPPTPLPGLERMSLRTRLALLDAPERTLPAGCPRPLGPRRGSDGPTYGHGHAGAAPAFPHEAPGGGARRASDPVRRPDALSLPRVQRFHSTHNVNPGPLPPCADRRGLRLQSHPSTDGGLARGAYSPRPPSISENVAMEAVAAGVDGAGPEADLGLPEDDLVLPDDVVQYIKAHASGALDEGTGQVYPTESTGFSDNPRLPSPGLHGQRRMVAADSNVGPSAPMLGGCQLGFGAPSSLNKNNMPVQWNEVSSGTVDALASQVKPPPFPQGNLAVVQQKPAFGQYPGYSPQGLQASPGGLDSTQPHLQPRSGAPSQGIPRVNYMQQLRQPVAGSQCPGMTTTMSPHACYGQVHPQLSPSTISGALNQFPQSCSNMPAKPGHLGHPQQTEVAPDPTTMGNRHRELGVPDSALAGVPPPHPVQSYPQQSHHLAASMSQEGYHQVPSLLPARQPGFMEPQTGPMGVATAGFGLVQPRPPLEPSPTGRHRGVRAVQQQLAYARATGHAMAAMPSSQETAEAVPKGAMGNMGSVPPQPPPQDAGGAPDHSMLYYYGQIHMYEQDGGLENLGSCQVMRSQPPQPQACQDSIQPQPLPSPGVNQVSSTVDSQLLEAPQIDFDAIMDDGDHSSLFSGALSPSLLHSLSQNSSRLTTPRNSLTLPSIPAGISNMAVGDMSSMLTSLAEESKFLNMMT
Protocol: Human 293T/17 (HEK 293T/17, freshly ordered from ATCC) were grown in a 10 cm cell-culture dish until 80% confluent and transfected with pCS2-MT Gli2 FL kindly provided by Dr. Roessler (49) (ADDGENE Plasmid 17648: pCS2-MT GLI2 FL) using Lipofectamine 2000 (LIFE TECHNOLOGIES) according to the manufacturer instructions. 72 hours after transfection the cells were treated with 0.5 μM darinaparsin or vehicle in DMEM 10% FBS for 12 hours, thereafter cells were resuspended in cold (4° C.) PBS and washed twice with PBS. After centrifugation (1500 rpm, 5 minutes) 1 ml of IP-Lysis Buffer (THERMO SCIENTIFIC)+proteinase inhibtior (ROCHE, #1183617000T) was added to the cell pellet and the suspension was homogenized using an insulin syringe. After centrifugation of the protein-solution (15 min, 12000 rpm) the supernatant was transferred into a fresh tube, an aliquot of 100 μl was taken as input control (FIG. 24) and the solution was incubated with 50 μl GST-Agarose beads (PIERCE GST Agarose #20211, THERMO SCIENTIFIC) for 4 hours on a rotator at 4° C. Thereafter the bead-protein solution was centrifuged (5000 rpm, 3 min) and the supernatant was taken as outflow control (FIG. 24), the agarose beads were washed three times by adding 1 ml of the above mentioned IP-Lysis buffer containing proteinase inhibitors followed by vortexing and centrifugation (5000 rpm, 3 min), the supernatant after each centrifugation was discarded. After 3 washes, the GST beads were cooked at 96° C. for 7 minutes in 100 μl Laemmli buffer (BIO-RAD). All protein samples (input, outflow and the final GST bead purification solution) were analysed by western blot with an antibody against c-myc (mouse monoclonal, 9E 10, DSHB, Iowa) the membrane was stained with Ponceau-S (SIGMA) to show specificity (FIG. 6H).

10T1/2 cells [1] = assay: Western blot of whole cell-lysate from 10T1/2 cells treated with darinaparsin; format: cell-based, mouse; settings: darinaparsin 0.5 μM, 72 hours
Excerpt: All cell-lines used within this study were freshly ordered from ATCC and routinely checked for mycoplasma contamination in the inventors' laboratory. 10T1/2 cells (ATCC) and cultured in Basal Medium Eagle (BME, GIBCO; LIFE TECHNOLOGIES) supplemented with 10% fetal bovine serum (FBS), penicillin and streptomycin and 2 mmol/L glutamine (GIBCO). Sonic hedgehog conditioned media was produced from supernatant of confluent Cos7 cells stably transfected with pcDNA3-N-Shh or pcDNA3 control plasmid. For Western blot experiments cells were grown on 10 cm dishes, serum starved in 0.5% FBS for 12 hours and then incubated with darinaparsin (0.5 μM) or vehicle with either Shh preconditioned medium or Cos7 control media (5× i.e., 2 ml preconditioned media in 8 ml BMW 0.5% FBS) for 72 hours.
Kidney tissue was snap frozen in liquid nitrogen and stored at −80° C. immediately after mice were killed. Tissue samples were homogenized in lysis buffer containing 10 mM HEPES, pH 7.4, 0.32M sucrose, 2 mM EDTA, 1 mM DTT, 1 mM PMSF and 1 protease inhibitor tablet per 10 ml of lysis buffer (ROCHE Cat. No. 11836153001). Samples were sonicated and protein concentration was determined by the Bradford Assay using BIO-RAD Protein Assay Dye (BIORAD, Cat. No. 500-0006). 10-40 μg of protein from lysates was loaded on a 7.5 or 10% polyacrylamide gel and separated by SDS electrophoresis. Proteins were transferred to a IMMOBILON membrane (MILLIPORE) blocked in 5% milk in PBST, probed overnight at 4° C. with the primary antibodies: mouse anti-αSMA at 1:4000 (SIGMA, Cat. #A2547), rabbit anti-fibronectin at 1:4000 (ABCAM, #ab23750), rabbit anti-p21 at 1:200 (SANTA CRUZ BIOTECHNOLOGIES, #sc-471), rabbit anti-phospho-retinoblastoma(72) at 1:1000 (CELL SIGNALING #9307S, Ser780), rat anti-Gli1 at 1:1000 (R&D Systems #MAB3324), goat anti-Gli2 at 1:500 (R&D Systems #AF3635), rabbit anti-Cyclin Eat 1:200 (SANTA CRUZ #sc-481), rabbit anti-Cyclin A at 1:200 (SANTA CRUZ BIOTECHNOLOGIES #sc-751), rabbit anti-HA-Tag at 1:5000 (CELL SIGNALING #3724), mouse anti-c-myc (DSHB, Iowa, 9E 10) and rabbit anti-GAPDH at 1:4000 (BETHYL LABORATORIES, #A300-641A). Following incubation with primary antibody blots were washed probed with respective horseradish-peroxidase conjugated secondary antibodies at 1:5000 (DAKO, Cat. No. P0447, P0448, P0450) for 1 hour at room temperature and then visualized using the Western Lightning ECL kit from PERKINELMER (#NEL100001EA). Quantification of western bands was performed using ImageJ (NIH).

10T1/2 cells [2] = assay: Flow cytometric cell-cycle analysis of 10T1/2 cells; format: cell-based, mouse; settings: for cell-cycle distribution after siRNA knockdown: siRNA 5 nM vs scrambled siRNA
[3] = tested on: ATO resistant myeloma cell-lines; settings: cited from earlier work
[4] = cited from earlier work
Gli1+ MSC = assay: Myofibroblast differentiation of Gli1+ MSC in vitro upon TGF-β; format: cell-based, mouse; settings: for αSMA expression: Gli1+ MSC from bone marrow / bone chips or heart
10T1/2 cells [5] = assay: siRNA knockdown in 10T1/2 cells, mRNA and protein levels; format: cell-based, mouse
Protocol: For siRNA experiments cells were transfected with siRNA against Gli1 (LIFE SCIENCES, siRNA ID: s66723, Sequence 5'3' Sense: […] NO: 11), Antisense: […] NO: 12)), Gli2 (LIFE SCIENCES, siRNA ID: s66726, Sequence 5'3' Sense: […] NO: 13), Antisense: […] Transfection was performed with a final concentration of 5 nM of each siRNA according to the manufacturer instructions using LIPOFECTAMINE RNAiMAX transfection reagent (LIFE TECHNOLOGIES, #3778075). 72 hours after transfection cells were harvested for RNA or protein isolation. […] Kidney tissue or cell-pellets were harvested and immediately snap frozen in liquid nitrogen. RNA was extracted according to the manufacturer instructions using the RNeasy Mini Kit (QIAGEN) and 600 ng of total RNA was reverse transcribed with iScript (BIORAD). Quantitative polymerase chain reactions were carried out with iQ-SYBR Green supermix (BIORAD) and the BIORAD CFX96 Real Time System with the C1000 Touch Thermal Cycler. […] Glyceraldehyde-3-phosphate dehydrogenase (GAPDH) was used as a housekeeping gene. Data was analyzed using the 2-ΔΔct method. Kidney tissue was snap frozen in liquid nitrogen and stored at -80° C. immediately after mice were killed. Tissue samples were homogenized in lysis buffer containing 10 mM HEPES, pH 7.4, 0.32M sucrose, 2 mM EDTA, 1 mM DTT, 1 mM PMSF and 1 protease inhibitor tablet per 10 ml of lysis buffer (ROCHE Cat. No. 11836153001). Samples were sonicated and protein concentration was determined by the Bradford Assay using BIO-RAD Protein Assay Dye (BIORAD, Cat. No. 500-0006). 10-40 μg of protein from lysates was loaded on a 7.5 or 10% polyacrylamide gel and separated by SDS electrophoresis. […] Following incubation with primary antibody blots were washed probed with respective horseradish-peroxidase conjugated secondary antibodies at 1:5000 (DAKO, Cat. No. P0447, […]) for 1 hour at room temperature and then visualized using the Western Lightning ECL kit from PERKINELMER (#NEL100001EA). Quantification of western bands was performed using ImageJ (NIH).

lung = settings: in vivo; cited from earlier work
Gli1 and Gli2 = settings: cited from earlier work
human colon cancer cells = settings: cited from earlier work
[6] = siRNA 5 nM, 72 hours after transfection
[7] = GANT61 after UUO, UUO kidneys vs vehicle
[8] = GANT61 after UUO, listed as Gant61

Compound: C[As](C)SC[C@H](NC(=O)CC[C@H](N)C(=O)O)C(=O)NCC(=O)O [darinaparsin, S-dimethylarsino-glutathione]
- BUN levels (kidney): lower
- interstitial fibrosis (kidney): reduced
- fibrotic readouts (UUO kidneys; mouse, in vivo): substantial reductions
- enrichment of other nonspecific proteins (Ponceau staining) (Gli2; 0.5 μM darinaparsin): did not result in enrichment
- binding to Gli2 (pull-down of myc-tagged Gli2 with GST beads) (Gli2): binds directly to Gli2
- binding to Gli2 (pull-down of myc-tagged Gli2 with GST beads) (Gli2; listed as DAR): able to pull down Gli2
- Gli1 protein level (10T1/2 cells [1]): reduced
- Gli2 protein level (10T1/2 cells [1]): reduced
- p21 level (10T1/2 cells [1]): upregulation
- p-Rb level (10T1/2 cells [1]): decreased levels
- cell-cycle effect of darinaparsin upon Gli2 overexpression (10T1/2 cells [2]; 10T1/2 cells with retroviral full-length Gli2 vs control virus): rescued the cell-cycle effect; also recorded: rescues the cell cycle effect
- cell-cycle distribution of 10T1/2 cells (10T1/2 cells [2]; darinaparsin 0.5 μM vs vehicle, BrdU/7AAD flow cytometry): induces a G0/G1 cell cycle arrest
- susceptibility of ATO resistant myeloma cell-lines [3]: susceptible
- systemic toxicity ([4]; compared to ATO): significantly lower
- tolerated maximum dose compared to ATO ([4]; higher than ATO): 50 fold
- side effect on fast cycling cell populations as the bone marrow or intestine ([4]; reported by Tian et al.): no significant side effect

Compound: TGF-β
- αSMA expression (Gli1+ MSC): acquired expression
- αSMA expression (Gli1+ MSC; listed as TGFβ): robust upregulation
- induction of αSMA (Gli1+ MSC; bone marrow-derived Gli1+ MSC purified by FACS): 45 ×

Compound: siRNA directed against Gli2: siRNA ID s66726, SEQ ID NO: 13 and 14 (chain 1 GGAAAACUUCAACAAUACATT; chain 2 UGUAUUGUUGAAGUUUUCCAG; chemistry not given here)
- Gli2 expression (10T1/2 cells [5]; [6]): reduced
- mRNA and protein levels of Gli1 (10T1/2 cells [5]; [6]): reduced
- p21 level (10T1/2 cells [5]; siRNA knockdown, western blot): increased levels
- phosphorylated retinoblastoma (Ser780) level (10T1/2 cells [5]; siRNA knockdown, western blot): reduced levels
- cell-cycle distribution after siRNA knockdown (10T1/2 cells [2]): G0/G1 arrest

Compound: siRNA against Gli1: siRNA ID s66723, SEQ ID NO: 11 and 12 (chain 1 GCAGGUCUCCUAUCCUGAUTT; chain 2 NAUCAGGAUAGGAGACCUGCTG; chemistry not given here)
- mRNA and protein levels of Gli1 (10T1/2 cells [5]; [6]): reduced
- cell-cycle distribution after siRNA knockdown (10T1/2 cells [2]): had no effect

Compound: CS(=O)(=O)c1ccc(C(=O)Nc2ccc(Cl)c(-c3ccccn3)c2)c(Cl)c1 [GDC-0449]
- fibrosis severity in bleomycin induced lung fibrosis (lung): did not show this effect

Compound: Arsenic trioxide [ATO]
- antagonism of Gli1 and Gli2 (Gli1 and Gli2): antagonize both Gli1 and Gli2

Compound: CN(C)c1ccccc1CN1CCCN(Cc2ccccc2N(C)C)C1c1ccncc1 [GANT61]
- interstitial fibrosis (scoring of trichrome stained sections) (UUO kidneys; GANT61 50 mg/kg s.c. at day 1, 2, 3, 5, 7 and 9 after UUO, vs vehicle, 50 mg/kg): significantly reduced; also recorded: significantly less fibrosis
- Gli1 protein level of UUO kidneys (UUO kidneys; GANT61 after UUO): significantly reduced
- Gli2 protein level of UUO kidneys (UUO kidneys; GANT61 after UUO): significantly reduced
- mRNA expression of hedgehog readout Gli1 (UUO kidneys; GANT61 after UUO): reduced
- mRNA expression of hedgehog readout Ptch1 (UUO kidneys; GANT61 after UUO): reduced
- expression of fibrotic readout Coiled (UUO kidneys; [7]): significantly reduced; also recorded: significant lower expression
- expression of fibrotic readout fibronectin (UUO kidneys; [7]): significantly reduced; also recorded: significant lower expression
- expression of fibrotic readout α-SMA (UUO kidneys; [7]): significantly reduced; also recorded: significant lower expression
- mRNA expression of hedgehog readout Gli1 (UUO kidneys; [8]): significant reduction
- mRNA expression of hedgehog readout Ptch1 (UUO kidneys; [8]): significant reduction
- cell cycle of human colon cancer cells (human colon cancer cells): induced a G0/G1 arrest
- p21 in human colon cancer cells (human colon cancer cells): upregulation
- fibrosis severity in bleomycin induced lung fibrosis (lung): decreased fibrosis severity

From patent US9970935B2, “Uses of GLI1 in detecting tissue fibrosis” (THE BRIGHAM AND WOMEN'S HOSPITAL, INC., priority 2014, dated 2018)
